Data reported in patent publication EP1200395B1, “UREA DERIVATIVES AS INHIBITORS OF CCR-3 RECEPTOR” (KIRIN BEER KABUSHIKI KAISHA, priority 1999, dated 2001).
Structures can show the parent of a compound that is named as a salt.

The compounds below were run against T1, CCR-3 (Homo sapiens, UniProt P51677) (assay: Eotaxin-induced chemotaxis of CCR-3 transfectant cells (CCR3/U937)). Details: 10 µM test compound; eotaxin 1 x 10^-9 M; CCR3/U937 cells (Table 3a).
T1 sequence (P51677 1-355): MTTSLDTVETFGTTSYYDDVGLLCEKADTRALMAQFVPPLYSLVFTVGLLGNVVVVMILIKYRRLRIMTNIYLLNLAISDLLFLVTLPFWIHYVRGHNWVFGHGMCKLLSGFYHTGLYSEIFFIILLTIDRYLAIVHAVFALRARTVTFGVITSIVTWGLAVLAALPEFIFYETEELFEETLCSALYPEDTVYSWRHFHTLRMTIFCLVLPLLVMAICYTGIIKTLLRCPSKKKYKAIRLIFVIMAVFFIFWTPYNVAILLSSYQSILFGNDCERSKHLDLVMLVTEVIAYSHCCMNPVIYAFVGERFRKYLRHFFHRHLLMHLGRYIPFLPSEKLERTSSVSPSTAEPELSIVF
Format: cell-based
Parameters: expressed in transfected cells; host or cells: U937

| Chemotaxis Assay 10 µM (inhibition %) | SMILES |
| --- | --- |
| 100% | O=C(O)CCCN(CCCNC(=O)Nc1cccc(Cl)c1)C1CCCc2ccccc21 (stereo not drawn) [Compound 82] |
| 38% | COC(=O)CCCN(CCCNC(=O)Nc1ccc(OC)cc1OC)C1CCCc2ccccc21 (stereo not drawn) [Compound 55] |
| 100% | COC(=O)CCCN(CCCNC(=O)Nc1ccc(Br)cc1)[C@@H]1CCc2ccccc21 [Compound 178, Methyl 4-[[3-(4-bromophenylureido)propyl][(1R)-1-indanyl]amino]butylate] |
| 60% | O=C(NCCCN(CCc1cccc(Cl)c1)Cc1ccccc1)Nc1ccccc1 [Compound 280] |
| 100% | O=C(O)CCCN(CCCNC(=O)Nc1ccc(F)cc1)C1CCCc2ccccc21 (stereo not drawn) [Compound 188] |
| 100% | COC(=O)CCCN(CCCNC(=O)Nc1cccc(Cl)c1)C1CCCc2ccccc21 (stereo not drawn) [Compound 51] |
| 64% | COC(=O)CCCN(CCCNC(=O)Nc1ccc(Br)cc1)C(C)(C)Cc1ccccc1 [Compound 206] |
| 100% | COC(=O)CCCN(CCCNC(=O)Nc1cccc(Br)c1)C1CCCc2ccccc21 (stereo not drawn) [Compound 198] |
| 100% | COc1ccc(NC(=O)NCCCN(CCCC(=O)O)C2CCCc3ccccc32)cc1 (stereo not drawn) [Compound 88] |
| 81% | O=C(O)CCCN(CCCNC(=O)Nc1ccc(Br)cc1)Cc1cccs1 [Compound 69] |
| 100% | CCN(CCCNC(=O)Nc1ccccc1)CCc1ccc(F)cc1 [Compound 230] |
| 100% | N#Cc1cccc(NC(=O)NCCCN(CCCC(=O)O)C2CCCc3ccccc32)c1 (stereo not drawn) [Compound 260] |
| 100% | COC(=O)CCCN(CCCNC(=O)Nc1ccc(OC)cc1)C1CCCc2ccccc21 (stereo not drawn) [Compound 57] |
| 89% | O=C(O)CCCN(CCCNC(=O)Nc1ccc(Oc2ccccc2)cc1)C1CCCc2ccccc21 (stereo not drawn) [Compound 89] |
| 100% | COC(=O)CCCN(CCCNC(=O)Nc1ccc(C(=O)O)cc1)C1CCCc2ccccc21 (stereo not drawn) [Compound 225, Methyl 4-[[3-[4-(carboxy)phenylureido]propyl](1,2,3,4-tetrahydro-1-naphthyl)amino]butylate] |
| 100% | O=C(O)CCCN(CCCNC(=O)Nc1ccc(Cl)c(C(F)(F)F)c1)C1CCCc2ccccc21 (stereo not drawn) [Compound 84] |
| 88% | O=C(O)CCCN(CCCNC(=O)Nc1ccc(Br)cc1)C1c2ccccc2CC1O (stereo not drawn) [Compound 273] |
| 68% | O=C(O)CCCN(CCCNC(=O)Nc1ccc(Br)cc1)CCc1ccccc1 [Compound 72] |
| 97% | O=C(O)CCCN(CCCNC(=O)Nc1ccccc1)C1CCCc2ccccc21 (stereo not drawn) [Compound 87] |
| 100% | CSc1cccc(NC(=O)NCCCN(CCCC(=O)O)C2CCCc3ccccc32)c1 (stereo not drawn) [Compound 263] |

Same assay, conditions: 10 µM test compound; eotaxin 1 x 10^-9 M; CCR3/U937 cells (Table 3c)

| Chemotaxis Assay 10 µM (inhibition %) | SMILES |
| --- | --- |
| 100% | CC[N+](CCCNC(=O)Nc1ccccc1)(CCc1ccc(Cl)cc1)Cc1ccc(C(=O)OC)cc1.[I-] (stereo not drawn) [Compound 303] |
| 100% | CC[N+](CCCNC(=O)Nc1ccccc1)(CCc1cccc(Cl)c1)Cc1ccccc1.[I-] (stereo not drawn) [compound 328] |
| 100% | CC[N+](CCCNC(=O)Nc1ccccc1)(CCc1ccc(Cl)cc1)CC(C)C.[I-] (stereo not drawn) [compound 318] |
| 100% | CC[N+](CC)(CCCNC(=O)Nc1ccccc1)CCc1ccc(F)cc1.[I-] [Compound 306] |
| 100% | CC[N+](CCCNC(=O)Nc1ccc(C#N)cc1)(CCc1ccc(Cl)cc1)Cc1ccccc1.[I-] (stereo not drawn) [compound 326] |
| 100% | CC[N+](CCCNC(=O)Nc1ccccc1)(CCc1ccc(Cl)cc1)Cc1cccc(C)c1.[I-] (stereo not drawn) [compound 347] |
| 100% | CC[N+](CCCNC(=O)Nc1ccccc1)(CCc1ccc(Cl)cc1)Cc1cccc(Oc2ccccc2F)c1.[I-] (stereo not drawn) [compound 354] |
| 100% | CC[N+](CCCNC(=O)Nc1ccccc1)(CCc1ccc(Cl)cc1)Cc1cccc(OC)c1.[I-] (stereo not drawn) [compound 331] |

Same assay, conditions: U-937; 10 µM test compound; eotaxin 1 x 10^-9 M; CCR3/U937 cells (Table 3a)

| inhibition at 10 µM | SMILES |
| --- | --- |
| 47% | CC(C)(C)c1ccc(CN(CCCNC(=O)Nc2ccccc2)CCc2ccc(Cl)cc2)cc1 [Compound 19] |
| 100% | O=C(NCCCN(CCCCO)C1CCCc2ccccc21)Nc1ccc(Br)cc1 (stereo not drawn) [Compound 203, 4-[[3-(4-Bromophenylureido)propyl](1,2,3,4-tetrahydro-1-naphthyl)amino]-1-butanol] |
| 100% | CCN(CCCNC(=O)Nc1ccc(Cl)cc1)CCc1ccc(Cl)cc1 [Compound 6] |
| 40% | Cc1ccc(CN(CCCNC(=O)Nc2ccccc2)CCc2ccc(Cl)cc2)cc1 [Compound 21] |
| 26% | O=C(NCCCN(CCc1ccc(Cl)cc1)Cc1cnc2ccccc2c1)Nc1ccccc1 [Compound 20] |
| 100% | CC(c1ccc(F)cc1)N(CCCNC(=O)Nc1ccc(Br)cc1)CCCC(=O)O (stereo not drawn) [Compound 269, 4-[[3-(4-Bromophenylureido)propyl][1-(4-fluorophenyl)ethyl]amino]butanoic acid] |

Same assay, conditions: U-937; 10 µM test compound; eotaxin 1 x 10^-9 M; CCR3/U937 cells (Table 3c)

| inhibition at 10 µM | SMILES |
| --- | --- |
| 93% | CC[N+](CCCNC(=O)Nc1ccccc1)(CCc1ccc(Cl)cc1)Cc1ccc(C(=O)O)cc1 (stereo not drawn) [Compound 322, [3-(Phenylureido)propyl][2-(4-chlorophenyl)ethyl][4-(carboxy)benzyl]ethylammonium iodide] |
| 100% | CC[N+](CCCCC(=O)OC)(CCCNC(=O)Nc1ccccc1)CCc1ccc(Cl)cc1 (stereo not drawn) [Compound 320, [3-(Phenylureido)propyl][2-(4-chlorophenyl)ethyl][4-(methoxycarbonyl)butyl] ethylammonium iodide] |
| 100% | CC[N+](CCCNC(=O)Nc1ccccc1)(CCc1ccc(Cl)cc1)Cc1ccccc1Cl (stereo not drawn) [Compound 343, [3-(Phenylureido)propyl][2-(4-chlorophenyl)ethyl](2-chlorobenzyl)ethylammonium iodide] |
| 63% | CC[N+](CCCNC(=O)Nc1ccc(Br)cc1)(CCCC(=O)O)[C@@H](C)c1ccccc1 (stereo partly drawn) [Compound 315, [3-(4-Bromophenylureido)propyl][(1S)-1-phenylethyl][3-(carboxy)propyl]ethylammonium trifluoroacetate] |

Same assay, conditions: test compound 0.1 µg/ml; eotaxin 1 x 10^-9 M; CCR3/U937 transfectants; 37 °C, 1 hour

| Chemotaxis Assay 0.1 µg/ml (inhibition %) | SMILES |
| --- | --- |
| 87% | CC[N+](CCF)(CCCNC(=O)Nc1ccc(OC)cc1)CCc1ccc(Cl)c(Cl)c1.[I-] (stereo not drawn) [compound 453] |
| 99% | CC[N+](CCCNC(=O)Nc1ccccc1)(CCOCCOC)CCc1ccc(Cl)c(Cl)c1.[I-] (stereo not drawn) [compound 415] |
| 93% | CCC(CC)C[N+](CC)(CCCNC(=O)Nc1ccccc1)CCc1cccc(Cl)c1.[I-] (stereo not drawn) [compound 428] |
| 59% | CC[N+](CCCNC(=O)Nc1ccccc1)(CCc1ccc(Cl)cc1)CC1CCC1.[I-] (stereo not drawn) [compound 417] |
| 96% | CC[N+](CCF)(CCCNC(=O)Nc1ccccc1)CCc1cccc(Cl)c1.[I-] (stereo not drawn) [compound 432] |
| 44% | C=C(C)C[N+](CC)(CCCNC(=O)Nc1ccccc1)CCc1ccccc1.[I-] (stereo not drawn) [compound 426] |
| 43% | CC[N+](CCCNC(=O)Nc1ccccc1)(CCOCCOC)CCc1cccc(OC)c1.[I-] (stereo not drawn) [compound 406] |
